Source: patent US20090156594A1, “HETEROCYCLIC KINASE MODULATORS” (SGX Pharmaceuticals, Inc., priority 2007, published 2009)
pIC50: −log10 of the molar value.

How the values were obtained:
c-MET = target: T1, c-MET (Homo sapiens, UniProt P08581); test: MET luminescence-based enzyme assay (Kinase-Glo); assay type: biochemical; details: MET kinase domain, 10 μM ATP, 60 min at 21° C.
T1 construct: expressing the kinase domain of human Met; 6x Histidine tag (TEV-cleavable) (cleaved yes); made in house; host or cells: Sf9 insect cells
T1 sequence (P08581 1078-1345 limits assumed): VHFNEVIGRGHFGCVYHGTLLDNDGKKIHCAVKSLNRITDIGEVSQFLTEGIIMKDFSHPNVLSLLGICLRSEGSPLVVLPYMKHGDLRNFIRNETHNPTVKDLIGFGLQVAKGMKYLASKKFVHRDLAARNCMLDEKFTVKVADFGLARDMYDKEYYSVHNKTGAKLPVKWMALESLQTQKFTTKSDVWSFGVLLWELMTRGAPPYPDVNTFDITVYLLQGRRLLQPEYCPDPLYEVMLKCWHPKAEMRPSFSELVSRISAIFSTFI
Experimental: Screening data was evaluated using the equation: Z′=1-[3*(σ++σ−)/|μ+−μ−|] […] The subscript designates positive or negative controls. The Z′ score for a robust screening assay should be ≧0.50. The typical threshold=μ+−3*σ+. Any value that falls below the threshold was designated a “hit”.
MET Luminescence-Based Enzyme Assay
MET kinase (see below), Kinase-Glom (Promega Cat#V6712).
(diluted 50 μl into total of 10 ml miliQH2O daily=50 μM ATP working stock); 1% BSA (1 g BSA in 100 ml 0.1M HEPES, pH 7.5, stored at −20° C.), 100 mM MgCl2; 200 μM Staurosporine, 2× Kinase-Glo™ reagent (made fresh or stored at −20° C.).
Standard Assay Setup for 384-well format (20 μl kinase reaction, 40 μl detection reaction): 10 mM MgCl2; 0.3 mg/mil poly Glu-Tyr; 0.1% BSA; 1 μl test compound (in DMSO); 0.4 μg/ml MET kinase; 10 μM ATP; 100 mM HEPES buffer. Positive controls contained DMSO with no test compound. Negative controls contained […] staurosporine. The kinase reactions were initiated at time t=0 by the addition of ATP. Kinase reactions were incubated at 21° C. for 60 min, then 20 μl of Kinase-Glo™ reagent were added to each well to quench the kinase reaction and initiate the luminescence reaction. After a 20 min incubation at 21° C., the luminescence was detected in a plate-reading luminometer.
The cell pellets produced from half of a 12 L Sf9 insect cell culture expressing the kinase domain of human Met were resuspended in a buffer containing 50 mM Tris-HCl pH 7.7 and 250 mM NaCl, in a volume of approximately 40 ml per 1 L of original culture. […] The suspension was stirred for 1 hour at 4° C. Debris was removed by centrifugation for 30 minutes at 39,800×g at 4° C. […] The sample was then poured into a drip column at 4° C. and washed with 10 column volumes of 50 mM Tris-HCl pH 7.8, 500 mM NaCl, 10% Glycerol, […], and 10 mM Methionine. The protein was eluted using a step gradient with two column volumes each of the same buffer containing 50 mM, 200 mM, and 500 mM Imidazole, sequentially. […] The step gradient was run with 15% and then 80% of the B-side (A-side=50 mM Tris-HCl pH 7.8, 500 mM NaCl, 10% Glycerol, 10 mM Imidazole, and 10 mM Methionine; B-side=50 mM Tris-HCl pH 7.8, […], 10% Glycerol, 500 mM Imidazole, and 10 mM Methionine) for 4 column volumes each.

GTL16 cells = test: 96-well XTT cell survival assay (GTL16 cells); assay type: cell-based; details: Homo sapiens, GTL 16, 72 hours
Experimental: GTL16 cells were maintained in DMEM Medium supplemented with 10% fetal bovine serum (FBS) 2 mM L-Glutamine and 100 units penicillin/100 μg streptomycin, at 37° C. in 5% CO2.
Compounds were Tested in the Following Assays in Duplicate.
96-well XTT assay (GTL16 cells): One day prior to assay the growth media was aspirated off and assay media was added to cells. On the day of the assay, the cells were grown in assay media containing various concentrations of compounds (duplicates) on a 96-well flat bottom plate for 72 hours at 37° C. in 5% CO2. The starting cell number was 5000 cells per well and volume was 120 μl. At the end of the 72-hour incubation, 40 μl of XTT labeling mixture (50:1 solution of sodium 3′-[1-(phenylaminocarbonyl)-3,4-tetrazolium]-bis(4-methoxy-6-nitro) benzene sulfonic acid hydrate and Electron-coupling reagent: PMS (N-methyl dibenzopyrazine methyl sulfate) were added to each well of the plate. After an additional 5 hours of incubation at 37° C., the absorbance reading at 450 nm with a background correction of 650 nm was measured with a spectrophotometer.

Row | SMILES | pIC50 (c-MET) | pIC50 (GTL16 cells)
1 | Cn1cc(-c2cnc3ccc(Cc4nnc5sc([C@@H]6CCCN6)nn45)cc3c2)cn1 | 6.00 to 7.00 | –
2 | Fc1cc2ncccc2cc1Cc1nnc2sc(C(F)(F)F)nn12 | 5.00 to 6.00 | –
3 | Cc1nn2c(Cc3c(F)cc4ncc(Br)cc4c3F)nnc2s1 | 6.00 to 7.00 | 6.00 to 7.00
4 | Cn1cc(-c2cnc3ccc(Cc4nnc5sc(-c6cccnc6)nn45)cc3c2)cn1 [drawing 184] | – | ≥ 7.00
5 | Cc1nn2c(Cc3cc4cccnc4cc3F)nnc2s1 | 6.00 to 7.00 | 6.00 to 7.00
6 | Brc1cnc2ccc(Cc3nnc4sc(CN5CCCC5)nn34)cc2c1 | 6.00 to 7.00 | –
7 | NCc1ccc(-c2cnc3nnc(Cc4ccc5ncccc5c4)n3c2)cc1 | < 5.00 | –
8 | Cn1cc(-c2cnc3ccc(Cc4nnc5sc(C(N)Cc6cncn6C)nn45)cc3c2)cn1 (stereo not shown) | 6.00 to 7.00 | –
9 | CN[C@H](C)c1nn2c(Cc3ccc4ncc(-c5cnn(C)c5)cc4c3)nnc2s1 | 6.00 to 7.00 | 6.00 to 7.00
10 | Cn1cc(-c2cnc3ccc(Cc4nnc5sc([C@@H](N)CC6CCCCC6)nn45)cc3c2)cn1 | 6.00 to 7.00 | –
11 | c1ccc(-c2cn3c(Sc4ccc5ncccc5c4)nnc3s2)cc1 | 6.00 to 7.00 | 5.00 to 6.00
12 | CS(=O)(=O)c1cccc(-c2cnc3nnc(Cc4ccc5ncccc5c4)n3c2)c1 | < 5.00 | –
13 | C[C@H](N)c1nn2c(Cc3ccc4ncc(-c5cnn(C)c5)cc4c3)nnc2s1 | 6.00 to 7.00 | –
14 | c1ccc(-c2cn3c(Cc4ccc5ncccc5c4)nnc3s2)cc1 [6-(6-Phenyl-thiazolo[2,3-c][1,2,4]triazol-3-ylmethyl)-quinoline] | 5.00 to 6.00 | –
15 | Fc1cc2ncccc2cc1Cc1nnc2sc(-c3ncc[nH]3)nn12 | 6.00 to 7.00 | 5.00 to 6.00
16 | Cn1cc(-c2nn3c(Cc4ccc5ncccc5c4)nnc3s2)cn1 [6-[6-(1-Methyl-1H-pyrazol-4-yl)-[1,2,4]triazolo[3,4-b][1,3,4]thiadiazol-3-ylmethyl]-quinoline] | – | 6.00 to 7.00
17 | OCc1nn2c(Cc3ccc4ncc(Br)cc4c3)nnc2s1 | < 5.00 | –
18 | Cc1nn2c(Sc3ccc4ncccc4c3)nnc2s1 | 6.00 to 7.00 | –
19 | C[C@@H](O)[C@@H](N)c1nn2c(Cc3ccc4ncc(-c5cnn(C)c5)cc4c3)nnc2s1 | 5.00 to 6.00 | –
20 | CN(C)Cc1nn2c(Cc3c(F)cc4ncc(Br)cc4c3F)nnc2s1 | 5.00 to 6.00 | –
21 | Cn1cc(-c2cnc3ccc(Cc4nnc5sc(CNC6CC6)nn45)cc3c2)cn1 | > 7.00 | ≥ 7.00

The next lines start with results.

Row | pIC50 (c-MET) | SMILES | pIC50 (GTL16 cells)
22 | > 7.00 | c1ccc(-c2nn3c(Cc4ccc5ncccc5c4)nnc3s2)cc1 | 5.00 to 6.00
23 | > 7.00 | Cn1cc(-c2cnc3ccc(Cc4nnc5sc(CNCCN6CCOCC6)nn45)cc3c2)cn1 | 6.00 to 7.00
24 | > 7.00 | Cn1cc(-c2cnc3ccc(Cc4nnc5sc(C6CCC6)nn45)cc3c2)cn1 | ≥ 7.00
25 | > 7.00 | c1cnc2ccc(Cc3nnc4sc(NC5CC5)nn34)cc2c1 [cyclopropyl-(3-quinolin-6-ylmethyl-[1,2,4]triazolo[3,4-b][1,3,4]thiadiazol-6-yl)-amine] | ≥ 7.00
26 | > 7.00 | Cn1cc(-c2cnc3ccc(Cc4nnc5sc(CNCC6CC6)nn45)cc3c2)cn1 | ≥ 7.00
27 | > 7.00 | COCCc1nn2c(Sc3ccc4ncc(-c5cnn(C)c5)cc4c3)nnc2s1 | ≥ 7.00
28 | > 7.00 | Cn1cc(-c2cnc3ccc(Cc4nnc5sc(CNCCF)nn45)cc3c2)cn1 | ≥ 7.00
29 | > 7.00 | Cc1nn2c(Cc3c(F)cc4ncc(-c5cnn(C)c5)cc4c3F)nnc2s1 | ≥ 7.00
30 | > 7.00 | Cn1cc(-c2cnc3ccc(Cc4nnc5sc([C@@H](N)CC6CC6)nn45)cc3c2)cn1 | –
31 | > 7.00 | CCc1nn2c(Sc3ccc4ncc(-c5cnn(C)c5)cc4c3)nnc2s1 | 6.00 to 7.00
32 | > 7.00 | Cc1nn2c(Cc3ccc4ncc(-c5cnn(C)c5)cc4c3)nnc2s1 | ≥ 7.00
33 | > 7.00 | CN(C)Cc1nn2c(Cc3ccc4ncc(-c5cnn(C)c5)cc4c3)nnc2s1 | ≥ 7.00
34 | > 7.00 | CC(C)NCc1nn2c(Cc3ccc4ncc(-c5cnn(C)c5)cc4c3)nnc2s1 | ≥ 7.00
35 | > 7.00 | Cn1cc(-c2nn3c(Sc4ccc5ncccc5c4)nnc3s2)cn1 [6-[6-(1-Methyl-1H-pyrazol-4-yl)-[1,2,4]triazolo[3,4-b][1,3,4]thiadiazol-3-ylsulfanyl]-quinoline] | 6.00 to 7.00
36 | > 7.00 | Cn1cc(-c2cnc3ccc(Cc4nnc5nccnn45)cc3c2)cn1 [3-(1-Methyl-1H-pyrazol-4-yl)-6-[1,2,4]triazolo[4,3-b][1,2,4]triazin-3-ylmethyl-quinoline] | ≥ 7.00
37 | > 7.00 | Cc1nn2c(Sc3ccc4ncc(-c5cnn(C)c5)cc4c3)nnc2s1 | ≥ 7.00
38 | > 7.00 | Cc1nn2c(Cc3ccc4ncc(-c5cnn(C)c5)cc4c3F)nnc2s1 | ≥ 7.00
39 | > 7.00 | Cn1cc(-c2nn3c(Cc4ccc5ncccc5c4)cnc3s2)cn1 [6-[2-(1-methyl-1H-pyrazol-4-yl)-imidazo[2,1-b][1,3,4]thiadiazol-5-ylmethyl]-quinoline] | 6.00 to 7.00
40 | > 7.00 | Cn1cc(-c2cnc3ccc(Cc4nnc5sc(-c6cccnc6)nn45)cc3c2)cn1 [drawing 217] | –
41 | > 7.00 | CCc1nn2c(Cc3ccc4ncc(-c5cnn(C)c5)cc4c3)nnc2s1 | ≥ 7.00
42 | > 7.00 | CNCc1nn2c(Cc3ccc4ncc(-c5cnn(C)c5)cc4c3)nnc2s1 | ≥ 7.00
43 | > 7.00 | Cn1cc(-c2nn3c(Cc4cc5cccnc5cc4F)nnc3s2)cn1 | ≥ 7.00
44 | > 7.00 | Cn1cc(-c2cnc3ccc(Cc4nnc5sc(CNCCO)nn45)cc3c2)cn1 | 6.00 to 7.00
45 | > 7.00 | CCNCc1nn2c(Cc3ccc4ncc(-c5cnn(C)c5)cc4c3)nnc2s1 | 6.00 to 7.00
46 | > 7.00 | C[C@@H](N)c1nn2c(Cc3ccc4ncc(-c5cnn(C)c5)cc4c3)nnc2s1 | 6.00 to 7.00
47 | > 7.00 | Cn1cc(-c2nn3c(Cc4c(F)cc5ncccc5c4F)nnc3s2)cn1 | ≥ 7.00
48 | > 7.00 | COCc1nn2c(Cc3ccc4ncc(-c5cnn(C)c5)cc4c3)nnc2s1 | ≥ 7.00
49 | > 7.00 | Cn1cc(-c2cnc3ccc(Cc4nnc5sc(C6CC6)nn45)cc3c2)cn1 | ≥ 7.00
50 | > 7.00 | Cn1cc(-c2cnc3ccc(Cc4nnc5sc([C@H](N)CC6CCCCC6)nn45)cc3c2)cn1 | 6.00 to 7.00
51 | > 7.00 | Cn1cc(-c2cnc3ccc(Cc4nnc5sc(CNCC(F)(F)F)nn45)cc3c2)cn1 | ≥ 7.00
